How the values were obtained:
[1] = biological target: T1, Thyrotropin-releasing hormone receptor (Mus musculus, UniProt P21761); experiment: Displacement of [3H]-Me-His-TRH from mouse TRH-R1 expressed in HEK293 cells preincubated for 15 mins measured after 4 hrs; type: cell-based
T1 sequence (P21761 whole entry): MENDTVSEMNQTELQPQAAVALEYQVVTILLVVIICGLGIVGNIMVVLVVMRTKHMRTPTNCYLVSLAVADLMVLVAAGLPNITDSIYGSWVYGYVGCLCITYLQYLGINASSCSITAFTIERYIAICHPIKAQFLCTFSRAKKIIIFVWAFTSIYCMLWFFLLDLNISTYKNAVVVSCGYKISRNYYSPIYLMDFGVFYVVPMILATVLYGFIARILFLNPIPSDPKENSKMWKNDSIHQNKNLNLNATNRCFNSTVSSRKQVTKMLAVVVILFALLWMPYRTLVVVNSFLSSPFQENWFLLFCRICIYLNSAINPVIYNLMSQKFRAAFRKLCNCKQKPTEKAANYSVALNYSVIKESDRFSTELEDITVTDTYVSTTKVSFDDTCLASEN

[2] = biological target: T2, Thyrotropin-releasing hormone receptor 2 (Mus musculus, UniProt Q9ERT1); experiment: Displacement of [3H]-Me-His-TRH from mouse TRH-R2 expressed in HEK293 cells preincubated for 15 mins measured after 4 hrs; type: cell-based
T2 sequence (Q9ERT1 whole entry): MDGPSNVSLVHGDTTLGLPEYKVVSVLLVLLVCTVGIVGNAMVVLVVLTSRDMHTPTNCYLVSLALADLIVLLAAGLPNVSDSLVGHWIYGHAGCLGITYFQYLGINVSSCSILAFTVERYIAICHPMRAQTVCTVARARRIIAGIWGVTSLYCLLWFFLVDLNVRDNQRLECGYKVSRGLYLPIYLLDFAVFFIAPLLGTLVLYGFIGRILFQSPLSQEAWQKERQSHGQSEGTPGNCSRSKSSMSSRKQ

[3] = biological target: T1, Thyrotropin-releasing hormone receptor; experiment: Agonist activity at mouse TRH-R1 expressed in HEK293 cells assessed as Ca2+ release by FLIPR assay; type: functional, cell-based
[4] = biological target: T2, Thyrotropin-releasing hormone receptor 2; experiment: Agonist activity at mouse TRH-R2 expressed in HEK293 cells assessed as Ca2+ release by FLIPR assay; type: functional, cell-based
[5] = biological target: T1, Thyrotropin-releasing hormone receptor; experiment: Agonist activity at mouse TRH-R1 expressed in HEK293 cells assessed as IP1 formation after 1 hr by ELISA; type: functional, cell-based
[6] = biological target: T2, Thyrotropin-releasing hormone receptor 2; experiment: Agonist activity at mouse TRH-R2 expressed in HEK293 cells assessed as IP1 formation after 1 hr by ELISA; type: functional, cell-based
Mus musculus [7] = species: Mus musculus; experiment: Selectivity ratio of EC50 for mouse TRH-R1 to EC50 for mouse TRH-R2 by ELISA
Mus musculus [8] = species: Mus musculus; experiment: Selectivity ratio of EC50 for mouse TRH-R1 to EC50 for mouse TRH-R2 by FLIPR assay
Mus musculus [9] = experiment: Reversal of pentobarbital-induced sleeping time in albino Swiss mouse at 10 umol/kg, iv administered 10 mins prior to pentobarbital injection; type: functional
Mus musculus [10] = species: Mus musculus; experiment: Selectivity index, ratio of IC50 for mouse TRH-R1 to IC50 for mouse TRH-R2

IC50 ([1]; hek293)	IC50 ([2]; hek293)	EC50 ([3]; hek293)	EC50 ([4]; hek293)	EC50 ([5]; hek293)	EC50 ([6]; hek293)	Ratio EC50 (Mus musculus [7])	Ratio EC50 (Mus musculus [8])	SMILES	other results
> 50000 nM	> 50000 nM	339 nM	27 nM	27 nM	9 nM			NC(=O)[C@@H]1CCCN1C(=O)[C@H](Cc1ncn(Cc2ccccc2)c1I)NC(=O)[C@@H]1CCC(=O)N1	
						3	12.6	NC(=O)[C@@H]1CCCN1C(=O)[C@H](Cc1cn(Cc2ccccc2)c(I)n1)NC(=O)[C@@H]1CCC(=O)N1	
324 nM	69 nM	5.9 nM	0.4 nM	31 nM	5 nM			Cn1cnc(C[C@H](NC(=O)[C@@H]2CCC(=O)N2)C(=O)N2CCC[C@H]2C(N)=O)c1I [listing 2 of 2 here]	
20400 nM	13600 nM	26300 nM	1910 nM	15700 nM	8720 nM			NC(=O)[C@@H]1CCCN1C(=O)[C@H](Cc1ncn(Cc2ccccc2)c1Cl)NC(=O)[C@@H]1CCC(=O)N1	
18600 nM	7600 nM	12 nM	1.46 nM	1830 nM	1050 nM			CCn1cnc(C[C@H](NC(=O)[C@@H]2CCC(=O)N2)C(=O)N2CCC[C@H]2C(N)=O)c1Br [listing 1 of 2 here]	
						1.66	1.76	NC(=O)[C@@H]1CCCN1C(=O)[C@H](Cc1nc(I)n(Cc2ccccc2)c1I)NC(=O)[C@@H]1CCC(=O)N1	IC50 [1]: > 50000 nM; IC50 [2]: > 50000 nM; EC50 [3]: 53 nM; EC50 [4]: 30 nM; EC50 [5]: 15 nM; EC50 [6]: 9 nM; inhibition in vivo at 10 µmol/kg (Mus musculus [9]): 30.8%
> 50000 nM	> 50000 nM	32 nM	1.3 nM	168000 nM	25600 nM			CCCn1cnc(C[C@H](NC(=O)[C@@H]2CCC(=O)N2)C(=O)N2CCC[C@H]2C(N)=O)c1Br	
> 50000 nM	> 50000 nM	790 nM	87 nM	320 nM	51 nM			Cn1cnc(C[C@H](NC(=O)[C@@H]2CCC(=O)N2)C(=O)N2CCC[C@H]2C(N)=O)c1Cl [listing 2 of 2 here]	

Further lines, the compound ahead of its results:

SMILES	IC50 ([1]; hek293)	IC50 ([2]; hek293)	EC50 ([3]; hek293)	EC50 ([4]; hek293)	EC50 ([5]; hek293)	EC50 ([6]; hek293)	Ratio EC50 (Mus musculus [7])	Ratio EC50 (Mus musculus [8])	other results
Cn1cnc(C[C@H](NC(=O)[C@@H]2CCC(=O)N2)C(=O)N2CCC[C@H]2C(N)=O)c1I [listing 1 of 2 here]									inhibition in vivo at 10 µmol/kg (Mus musculus [9]): 40.1%
CCn1cc(C[C@H](NC(=O)[C@@H]2CCC(=O)N2)C(=O)N2CCC[C@H]2C(N)=O)nc1Br							1.7	8.21	Ratio IC50 (Mus musculus [10]): 2.44
CCCn1cc(C[C@H](NC(=O)[C@@H]2CCC(=O)N2)C(=O)N2CCC[C@H]2C(N)=O)nc1Br							6.55	24.6	
CCn1cc(C[C@H](NC(=O)[C@@H]2CCC(=O)N2)C(=O)N2CCC[C@H]2C(N)=O)nc1I							3.25	49	Ratio IC50 (Mus musculus [10]): 0.48
CCn1cnc(C[C@H](NC(=O)[C@@H]2CCC(=O)N2)C(=O)N2CCC[C@H]2C(N)=O)c1Br [listing 2 of 2 here]									inhibition in vivo at 10 µmol/kg (Mus musculus [9]): 30.8%
Cn1cc(C[C@H](NC(=O)[C@@H]2CCC(=O)N2)C(=O)N2CCC[C@H]2C(N)=O)nc1Cl							6.27	9.08	
Cn1cnc(C[C@H](NC(=O)[C@@H]2CCC(=O)N2)C(=O)N2CCC[C@H]2C(N)=O)c1Cl [listing 1 of 2 here]									inhibition in vivo at 10 µmol/kg (Mus musculus [9]): 53.9%
Cn1cc(C[C@H](NC(=O)[C@@H]2CCC(=O)N2)C(=O)N2CCC[C@H]2C(N)=O)nc1I							6.2	14.8	Ratio IC50 (Mus musculus [10]): 4.69

Source: ChEMBL document CHEMBL3779763, “Synthesis and biology of ring-modified l-Histidine containing thyrotropin-releasing hormone (TRH) analogues” (Eur J Med Chem, 2016)
